target: T1, GLP-1 Receptor (Homo sapiens, UniProt P43220); test: GLP-1R agonist cAMP stimulation assay (HEK293/GLP1R/CRE-LUC cells, Cisbio cAMP dynamic 2 kit); type: cell-based; settings: HEK293/CRE-Luc cells stably expressing the GLP-1 Receptor, 30 min at 37° C.
T1 construct: host or cells: HEK293/CRE-Luc (HEK293/GLP1R/CRE-LUC)
Method: Activation of GLP-1 receptor is known to stimulate cyclic AMP (cAMP) production in cells which indicates primary coupling to the Gas subunit of the G protein heterotrimeric complex.
To optimize functional activity directed toward Gas coupling, a HEK293/CRE-Luc cell line developed by HDB stably expressing the GLP-1 Receptor was used. 200× concentration of compound working solutions were prepared (Agilent Technologies Bravo) with ½ log serial dilution in 384-well Echo LDV plate (Labcyte, Cat #LP-0200). […] 200× concentration of compound working solutions were moved to 384-well white low volume plate (Greiner, Cat #784075) using Labcyte ECHO550. 1×10^5 cells/mL HEK293/GLP1R/CRE-LUC (HD Biosciences) cell suspensions prepared with assay buffer [DPBS containing 0.5 mM IBMX (Sigma, Cat #15879) and 0.1% BSA (GENVIEW, Cat #FA016-100g)], 10 μL cell suspensions were added to each well of previous generated assay plate which already contains […] compound at 200×concentration using ThermoFisher Multidrop Combi (1000 cells/well). Seal the plate and incubate at 37° C. with 5% CO2 for 30 min.
After incubation the cAMP assay signal was generated using cAMP dynamic 2 Kit (Cisbio). 5 μL cAMP-d2 working solution was added to each well, followed with 5 μL Anti-cAMP antibody-cryptate working solution added to each well using ThermoFisher Multidrop Combi. Incubate at room temperature for 1 hour protected from light. Read the fluorescence at 665 and 615 nm with Reader PerkinElmer EnVision.

T1 sequence (P43220 24-463, species assumed): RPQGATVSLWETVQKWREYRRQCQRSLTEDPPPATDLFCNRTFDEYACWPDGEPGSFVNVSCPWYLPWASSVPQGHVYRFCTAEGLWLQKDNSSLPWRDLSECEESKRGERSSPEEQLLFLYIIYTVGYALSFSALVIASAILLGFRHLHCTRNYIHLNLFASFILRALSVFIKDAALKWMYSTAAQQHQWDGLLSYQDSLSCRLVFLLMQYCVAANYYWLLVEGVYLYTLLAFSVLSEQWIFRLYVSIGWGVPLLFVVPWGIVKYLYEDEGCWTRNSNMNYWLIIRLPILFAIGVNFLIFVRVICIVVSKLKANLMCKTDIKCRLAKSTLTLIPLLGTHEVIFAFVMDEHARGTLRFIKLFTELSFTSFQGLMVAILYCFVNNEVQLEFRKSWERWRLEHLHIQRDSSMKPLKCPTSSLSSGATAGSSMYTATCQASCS

SMILES	EC50 [nM]
Fc1ccc(COc2cccc(C3CCN(Cc4nc5cc(-c6nnc(C(F)(F)F)[nH]6)ncc5n4C[C@@H]4CCO4)CC3)n2)c2c1OCO2 [Compound 17, (S)-2-((4-(6-((7-fluorobenzo[d][1,3]dioxol-4-yl)methoxy)pyridin-2-yl)piperidin-1-yl)methyl)-3-(oxetan-2-ylmethyl)-6-(5-(trifluoromethyl)-4H-1,2,4-triazol-3-yl)-3H-imidazo[4,5-c]pyridine]	< 1
FC1(F)Oc2cccc(COc3cccc(C4CCN(Cc5nc6cc(-c7nnc(C(F)(F)F)[nH]7)ncc6n5C[C@@H]5CCO5)CC4)n3)c2O1 [Compound 18, (S)-2-((4-(6-((2,2-difluorobenzo[d][1,3]dioxol-4-yl)methoxy)pyridin-2-yl)piperidin-1-yl)methyl)-3-(oxetan-2-ylmethyl)-6-(5-(trifluoromethyl)-4H-1,2,4-triazol-3-yl)-3H-imidazo[4,5-c]pyridine]	< 1
[2H]C1([2H])Oc2cccc(COc3cccc(C4CCN(Cc5nc6cc(-c7nnc(C(F)(F)F)[nH]7)ncc6n5C[C@@H]5CCO5)CC4)n3)c2O1 [Compound 19, (S)-2-((4-(6-((benzo[d][1,3]dioxol-4-yl-2,2-d2)methoxy)pyridin-2-yl)piperidin-1-yl)methyl)-3-(oxetan-2-ylmethyl)-6-(5-(trifluoromethyl)-4H-1,2,4-triazol-3-yl)-3H-imidazo[4,5-c]pyridine]	< 1
FC(F)(F)c1nnc(-c2cc3nc(CN4CCC(c5cccc(OCc6nc7ccccc7s6)n5)CC4)n(C[C@@H]4CCO4)c3cn2)[nH]1 [Compound 20, (S)-2-(((6-(1-((3-(oxetan-2-ylmethyl)-6-(5-(trifluoromethyl)-4H-1,2,4-triazol-3-yl)-3H-imidazo[4,5-c]pyridin-2-yl)methyl)piperidin-4-yl)pyridin-2-yl)oxy)methyl)benzo[d]thiazole]	< 1
Cc1ccc(COc2cccc(C3CCN(Cc4nc5cc(-c6nnc(C(F)(F)F)[nH]6)ncc5n4C[C@@H]4CCO4)CC3)n2)nn1 [Compound 21, 3-methyl-6-{[(6-{1-[(3-{[(2S)-oxetan-2-yl]methyl}-6-[5-(trifluoromethyl)-4H-1,2,4-triazol-3-yl]-3H-imidazo[4,5-c]pyridin-2-yl)methyl]piperidin-4-yl}pyridin-2-yl)oxy]methyl}pyridazine]	< 1
Fc1cn(C2CC2)nc1COc1cccc(C2CCN(Cc3nc4cc(-c5nnc(C(F)(F)F)[nH]5)ncc4n3C[C@@H]3CCO3)CC2)n1 [Compound 22, (S)-2-((4-(6-((1-cyclopropyl-4-fluoro-1H-pyrazol-3-yl)methoxy)pyridin-2-yl)piperidin-1-yl)methyl)-3-(oxetan-2-ylmethyl)-6-(5-(trifluoromethyl)-4H-1,2,4-triazol-3-yl)-3H-imidazo[4,5-c]pyridine]	1 to 100
C[C@]1(c2ccc(Cl)cc2F)Oc2cccc(C3CCN(Cc4nc5cc(C(=O)O)ncc5n4C[C@@H]4CCO4)CC3)c2O1 [Compound 23, 2-((4-((S)-2-(4-chloro-2-fluorophenyl)-2-methylbenzo[d][1,3]dioxol-4-yl)piperidin-1-yl)methyl)-3-(((S)-oxetan-2-yl)methyl)-3H-imidazo[4,5-c]pyridine-6-carboxylic acid]	< 1
CNC(=O)c1cc2nc(CN3CCC(c4cccc5c4O[C@@](C)(c4ccc(Cl)cc4F)O5)CC3)n(C[C@@H]3CCO3)c2cn1 [Compound 24, 2-((4-((S)-2-(4-chloro-2-fluorophenyl)-2-methylbenzo[d][1,3]dioxol-4-yl)piperidin-1-yl)methyl)-N-methyl-3-(((S)-oxetan-2-yl)methyl)-3H-imidazo[4,5-c]pyridine-6-carboxamide]	< 1
C[C@]1(c2ccc(Cl)cc2F)Oc2cccc(C3CCN(Cc4nc5cc(C(=O)NCC(F)(F)F)ncc5n4C[C@@H]4CCO4)CC3)c2O1 [Compound 25, 2-((4-((S)-2-(4-chloro-2-fluorophenyl)-2-methylbenzo[d][1,3]dioxol-4-yl)piperidin-1-yl)methyl)-3-(((S)-oxetan-2-yl)methyl)-N-(2,2,2-trifluoroethyl)-3H-imidazo[4,5-c]pyridine-6-carboxamide]	< 1
COCCNC(=O)c1cc2nc(CN3CCC(c4cccc5c4O[C@@](C)(c4ccc(Cl)cc4F)O5)CC3)n(C[C@@H]3CCO3)c2cn1 [Compound 26, 2-((4-((S)-2-(4-chloro-2-fluorophenyl)-2-methylbenzo[d][1,3]dioxol-4-yl)piperidin-1-yl)methyl)-N-(2-methoxyethyl)-3-(((S)-oxetan-2-yl)methyl)-3H-imidazo[4,5-c]pyridine-6-carboxamide]	< 1
C[C@]1(c2ccc(Cl)cc2F)Oc2cccc(C3CCN(Cc4nc5c(F)c(C(=O)O)ccc5n4C[C@@H]4CCO4)CC3)c2O1 [Compound 27, 2-((4-((S)-2-(4-chloro-2-fluorophenyl)-2-methylbenzo[d][1,3]dioxol-4-yl)piperidin-1-yl)methyl)-4-fluoro-1-(((S)-oxetan-2-yl)methyl)-1H-benzo[d]imidazole-5-carboxylic acid]	< 1
O=C(O)c1cc2nc(CN3CCC(c4cccc(OCc5ccc(Cl)cc5F)n4)CC3)n(C[C@@H]3CCO3)c2cn1 [Compound 28, (S)-2-((4-(6-((4-chloro-2-fluorobenzyl)oxy)pyridin-2-yl)piperidin-1-yl)methyl)-3-(oxetan-2-ylmethyl)-3H-imidazo[4,5-c]pyridine-6-carboxylic acid]	< 1
O=C(O)c1cc2nc(CN3CC=C(c4cccc(OCc5ccc(Cl)cc5F)n4)CC3)n(C[C@@H]3CCO3)c2cn1 [Compound 29, (S)-2-((6-((4-chloro-2-fluorobenzyl)oxy)-3′,6′-dihydro-[2,4′-bipyridin]-1′(2′H)-yl)methyl)-3-(oxetan-2-ylmethyl)-3H-imidazo[4,5-c]pyridine-6-carboxylic acid]	< 1
O=C(O)c1cc2nc(CN3CC=C(c4ccc(F)c(OCc5ccc(Cl)cc5F)c4)CC3)n(C[C@@H]3CCO3)c2cn1 [Compound 30, (S)-2-((4-(3-((4-chloro-2-fluorobenzyl)oxy)-4-fluorophenyl)-3,6-dihydropyridin-1(2H)-yl)methyl)-3-(oxetan-2-ylmethyl)-3H-imidazo[4,5-c]pyridine-6-carboxylic acid]	1 to 100
COc1cc(Cl)ccc1COc1cc(C2=CCN(Cc3nc4cc(-c5nnc(C(F)(F)F)[nH]5)ncc4n3C[C@@H]3CCO3)CC2)ccc1F [Compound 31, (S)-2-((4-(3-((4-chloro-2-methoxybenzyl)oxy)-4-fluorophenyl)-3,6-dihydropyridin-1(2H)-yl)methyl)-3-(oxetan-2-ylmethyl)-6-(5-(trifluoromethyl)-4H-1,2,4-triazol-3-yl)-3H-imidazo[4,5-c]pyridine]	< 1
NC(=O)c1nnc(-c2cc3nc(CN4CC=C(c5ccc(F)c(OCc6ccc(Cl)cc6F)c5)CC4)n(C[C@@H]4CCO4)c3cn2)[nH]1 [Compound 32, (S)-5-(2-((4-(3-((4-chloro-2-fluorobenzyl)oxy)-4-fluorophenyl)-3,6-dihydropyridin-1(2H)-yl)methyl)-3-(oxetan-2-ylmethyl)-3H-imidazo[4,5-c]pyridin-6-yl)-4H-1,2,4-triazole-3-carboxamide]	< 1
N#Cc1nnc(-c2cc3nc(CN4CC=C(c5ccc(F)c(OCc6ccc(Cl)cc6F)c5)CC4)n(C[C@@H]4CCO4)c3cn2)[nH]1 [Compound 33, (S)-5-(2-((4-(3-((4-chloro-2-fluorobenzyl)oxy)-4-fluorophenyl)-3,6-dihydropyridin-1(2H)-yl)methyl)-3-(oxetan-2-ylmethyl)-3H-imidazo[4,5-c]pyridin-6-yl)-4H-1,2,4-triazole-3-carbonitrile]	< 1
C[C@]1(c2ccc(Cl)cc2F)Oc2cccc(C3CCN(Cc4nc5c(F)c(-c6noc(=O)[nH]6)ccc5n4C[C@@H]4CCO4)CC3)c2O1 [Compound 34, 3-(2-((4-((S)-2-(4-chloro-2-fluorophenyl)-2-methylbenzo[d][1,3]dioxol-4-yl)piperidin-1-yl)methyl)-4-fluoro-1-(((S)-oxetan-2-yl)methyl)-1H-benzo[d]imidazol-5-yl)-1,2,4-oxadiazol-5(4H)-one]	< 1
O=c1[nH]c(-c2ccc3c(nc(CN4CCC(c5cccc(OCc6ccc(Cl)cc6F)n5)CC4)n3C[C@@H]3CCO3)c2F)no1 [Compound 35, (S)-3-(2-((4-(6-((4-chloro-2-fluorobenzyl)oxy)pyridin-2-yl)piperidin-1-yl)methyl)-4-fluoro-1-(oxetan-2-ylmethyl)-1H-benzo[d]imidazol-5-yl)-1,2,4-oxadiazol-5(4H)-one]	< 1
C[C@]1(c2ccc(Cl)cn2)Oc2cccc(C3CCN(Cc4nc5c(F)c(-c6noc(=O)[nH]6)ccc5n4C[C@@H]4CCO4)CC3)c2O1 [Compound 36, 3-(2-((4-((S)-2-(5-chloropyridin-2-yl)-2-methylbenzo[d][1,3]dioxol-4-yl)piperidin-1-yl)methyl)-4-fluoro-1-(((S)-oxetan-2-yl)methyl)-1H-benzo[d]imidazol-5-yl)-1,2,4-oxadiazol-5(4H)-one]	< 1

— patent US20250250269A1, “HETEROCYCLIC GLP-1 AGONISTS” (Gasherbrum Bio, Inc., priority 2022, published 2025)
